Results reported in paper PMC7073524 (Marine Drugs, 2020).
Where two headings read alike, the source gives them in different places.

Legend:
human α4β2 nAChR [1] = molecular target: T1, human α4β2 nAChR (Homo sapiens, UniProt P17787+P43681); assay: Two-electrode voltage-clamp, human α4β2 nAChRs expressed in Xenopus oocytes; type: cell-based; details: ± SEM; for EC50: EC50, potency, peak current; for Imax (% ACh): efficacy, peak current normalized to 100 µM ACh
T1 construct: expressed in transfected cells; host or cells: Xenopus laevis oocytes (mRNA injection)
From the text: (§1) It has been especially useful for investigating α7 nAChRs, due to the difficulties that were initially encountered in functional expression of this particular homomeric nAChR in mammalian cells. We measured the peak current response of an oocyte to a given concentration of the compound and expressed its amplitude with respect to the mean response to ACh before and after the compound test concentration.
(§2) Oocytes were harvested from Xenopus laevis frogs obtained from NASCO Scientific Co. (Ft. Atkinson, WI, USA) according to an accepted Kem laboratory Institutional Animal Care Committee (IACUC) approved protocol. We have already described the methods of oocyte injection, perfusion, rapid solution changes, and recording in considerable detail. Oocytes were injected with identical amounts (usually 12 ng) of human α4 and β2 mRNAs for α4β2 nAChR expression, or 20 ng of human α7 mRNAs for α7 nAChR expression. The two-electrode voltage-clamp method was used for recording peak responses (holding Em-50 mV for α4β2 and-60 mV for α7 receptors). […] The oocyte was no longer used if the current response to ACh decreased more than 20% during the experiment. Compounds dissolved in Barth’s saline (pH 7.3) were rapidly administered by an AutoMate perfusion system. Compound applications were separated by a 5 min wash period. We utilized GraphPad Prism software to analyze the data, always assuming a single homogeneous receptor population.

rat brain α4β2 nAChRs = rat brain α4β2 nAChRs (Rattus norvegicus, UniProt P09483+P12390); assay: [3H]-cytisine displacement from rat brain membranes; type: binding; details: ± SEM; for Ki: 0.3 nM [3H]-cytisine, 4 °C 4 h; for Hill Slope: [3H]-cytisine displacement
Procedure: [^3H]-Cytisine was purchased from New England Nuclear and iodinated α-bungarotoxin [^125I]-BTX from Amersham. […] [^3H]-Cytisine binding experiments were performed according to [57] with several modifications. Rat brain membranes were incubated with [^3H]-cytisine at 4 °C for 4 h. Then, 200 μg of membrane protein was incubated in a final volume of 500 μL binding saline at 4 °C for 4 h, while binding assays with ^125I-bungarotoxin were incubated at 37 °C for 3 h to assure that equilibrium was reached. […] Reactions were terminated by vacuum filtrations through Whatman GF/C filters (presoaked in PEI) using a Brandel cell harvester. Bound [^3H]-cytisine and ^125I-bungarotoxin were measured with liquid scintillation and gamma counters, respectively. Data were analyzed using GraphPad Prism software (San Diego, CA, USA). The data were fit by nonlinear regression analyses to a sigmoidal dose-response with variable slope. Ki values were calculated using the Cheng-Prusoff equation (K i = IC50/(1 + [RL]/Kd RL)) with a Kd RL value for each radioligand that had been previously determined. IC50 is the median inhibition concentration of the experimental compound and [RL] is the concentration of the radioligand.

human α7 nAChR = molecular target: T2, human α7 nAChR (Homo sapiens, UniProt P36544); assay: Two-electrode voltage-clamp, human α7 nAChRs expressed in Xenopus oocytes; type: cell-based; details: for EC50: EC50, potency, peak current estimates; for EC50 / Imax (% ACh): ± SEM; for Imax (% ACh): efficacy, peak current normalized to 1 mM ACh; for agonist character at α7 nAChRs: in words
T2 construct: expressed in transfected cells; host or cells: Xenopus laevis oocytes (mRNA injection)
From the text: as §1, §2

human α4β2 nAChR [2] = molecular target: T1, human α4β2 nAChR; details: human α4β2 nAChRs; ref Kem et al., in preparation; cited from earlier work
rat brain α7 receptors = rat brain α7 receptors (Rattus norvegicus, UniProt Q05941); assay: biochemical; type: binding
Chain of rat brain α7 receptors (Q05941 23-502): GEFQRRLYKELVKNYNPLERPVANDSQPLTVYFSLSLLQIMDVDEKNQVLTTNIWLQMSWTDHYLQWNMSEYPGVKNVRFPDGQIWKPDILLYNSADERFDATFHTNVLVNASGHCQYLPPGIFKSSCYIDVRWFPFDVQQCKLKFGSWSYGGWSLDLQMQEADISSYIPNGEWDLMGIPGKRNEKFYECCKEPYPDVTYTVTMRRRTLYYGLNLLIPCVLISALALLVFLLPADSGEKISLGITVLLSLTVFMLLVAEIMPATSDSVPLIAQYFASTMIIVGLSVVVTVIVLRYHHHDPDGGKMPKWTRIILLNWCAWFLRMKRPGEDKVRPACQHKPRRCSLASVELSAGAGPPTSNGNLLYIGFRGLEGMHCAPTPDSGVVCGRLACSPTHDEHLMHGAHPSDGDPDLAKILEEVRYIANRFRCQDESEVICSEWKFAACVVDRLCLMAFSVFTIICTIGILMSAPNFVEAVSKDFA

Chain of rat brain α4β2 nAChRs (P09483 31-630): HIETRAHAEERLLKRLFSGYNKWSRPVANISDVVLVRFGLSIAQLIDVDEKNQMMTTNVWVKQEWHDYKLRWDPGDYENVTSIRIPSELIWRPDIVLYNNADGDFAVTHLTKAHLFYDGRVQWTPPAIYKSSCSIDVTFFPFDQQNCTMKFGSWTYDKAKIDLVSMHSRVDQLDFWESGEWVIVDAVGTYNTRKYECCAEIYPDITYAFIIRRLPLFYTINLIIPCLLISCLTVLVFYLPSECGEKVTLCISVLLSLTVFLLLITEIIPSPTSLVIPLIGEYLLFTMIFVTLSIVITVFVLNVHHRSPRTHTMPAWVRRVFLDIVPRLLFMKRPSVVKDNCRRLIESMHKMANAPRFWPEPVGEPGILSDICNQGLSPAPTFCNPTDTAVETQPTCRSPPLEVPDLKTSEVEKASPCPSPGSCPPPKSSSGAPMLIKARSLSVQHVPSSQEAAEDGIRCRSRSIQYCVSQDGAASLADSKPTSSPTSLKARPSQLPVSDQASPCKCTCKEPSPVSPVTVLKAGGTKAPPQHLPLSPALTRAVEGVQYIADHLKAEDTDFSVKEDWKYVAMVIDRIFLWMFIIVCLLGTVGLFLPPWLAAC
Chain of rat brain α4β2 nAChRs (P12390 25-500): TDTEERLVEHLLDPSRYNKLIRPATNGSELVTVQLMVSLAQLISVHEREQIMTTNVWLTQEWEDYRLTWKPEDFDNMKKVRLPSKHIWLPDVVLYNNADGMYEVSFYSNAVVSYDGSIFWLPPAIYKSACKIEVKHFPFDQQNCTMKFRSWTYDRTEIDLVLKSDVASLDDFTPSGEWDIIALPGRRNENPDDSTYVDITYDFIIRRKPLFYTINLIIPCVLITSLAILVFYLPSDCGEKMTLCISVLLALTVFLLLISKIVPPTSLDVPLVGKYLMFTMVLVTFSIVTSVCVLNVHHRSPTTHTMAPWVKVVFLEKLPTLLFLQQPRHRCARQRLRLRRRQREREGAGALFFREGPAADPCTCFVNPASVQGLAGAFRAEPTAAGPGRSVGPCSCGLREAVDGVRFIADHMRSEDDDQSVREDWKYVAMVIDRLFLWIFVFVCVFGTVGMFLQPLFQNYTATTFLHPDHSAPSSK
T1 sequence (P43681 29-627 limits assumed): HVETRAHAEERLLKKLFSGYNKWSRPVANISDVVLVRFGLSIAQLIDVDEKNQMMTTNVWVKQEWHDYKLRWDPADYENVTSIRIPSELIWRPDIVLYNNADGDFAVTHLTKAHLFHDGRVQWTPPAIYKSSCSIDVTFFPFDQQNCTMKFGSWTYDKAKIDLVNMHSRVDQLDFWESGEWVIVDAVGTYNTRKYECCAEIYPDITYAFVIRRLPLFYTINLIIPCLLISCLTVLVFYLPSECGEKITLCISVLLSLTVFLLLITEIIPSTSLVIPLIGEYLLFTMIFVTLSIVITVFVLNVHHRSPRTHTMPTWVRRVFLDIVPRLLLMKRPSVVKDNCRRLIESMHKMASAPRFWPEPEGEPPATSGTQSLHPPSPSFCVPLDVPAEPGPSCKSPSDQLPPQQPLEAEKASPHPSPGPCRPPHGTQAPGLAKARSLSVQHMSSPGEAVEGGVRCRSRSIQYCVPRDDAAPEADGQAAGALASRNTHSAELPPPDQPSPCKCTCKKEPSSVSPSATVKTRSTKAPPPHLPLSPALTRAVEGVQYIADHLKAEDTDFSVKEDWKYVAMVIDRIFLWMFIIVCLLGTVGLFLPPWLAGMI
T1 sequence (P17787 26-502): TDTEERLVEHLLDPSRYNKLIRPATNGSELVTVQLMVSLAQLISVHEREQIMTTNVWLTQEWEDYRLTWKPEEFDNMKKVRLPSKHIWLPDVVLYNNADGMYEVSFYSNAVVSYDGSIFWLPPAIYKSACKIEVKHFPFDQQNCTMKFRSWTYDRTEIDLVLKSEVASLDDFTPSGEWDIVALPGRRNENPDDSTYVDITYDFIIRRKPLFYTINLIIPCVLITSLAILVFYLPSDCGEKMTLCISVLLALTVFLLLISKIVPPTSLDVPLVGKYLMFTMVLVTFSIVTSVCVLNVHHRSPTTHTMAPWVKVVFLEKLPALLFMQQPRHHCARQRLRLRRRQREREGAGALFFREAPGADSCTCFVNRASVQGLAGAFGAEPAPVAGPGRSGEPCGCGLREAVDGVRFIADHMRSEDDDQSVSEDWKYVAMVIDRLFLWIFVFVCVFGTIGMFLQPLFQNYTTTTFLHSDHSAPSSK
T2 sequence (P36544 23-502): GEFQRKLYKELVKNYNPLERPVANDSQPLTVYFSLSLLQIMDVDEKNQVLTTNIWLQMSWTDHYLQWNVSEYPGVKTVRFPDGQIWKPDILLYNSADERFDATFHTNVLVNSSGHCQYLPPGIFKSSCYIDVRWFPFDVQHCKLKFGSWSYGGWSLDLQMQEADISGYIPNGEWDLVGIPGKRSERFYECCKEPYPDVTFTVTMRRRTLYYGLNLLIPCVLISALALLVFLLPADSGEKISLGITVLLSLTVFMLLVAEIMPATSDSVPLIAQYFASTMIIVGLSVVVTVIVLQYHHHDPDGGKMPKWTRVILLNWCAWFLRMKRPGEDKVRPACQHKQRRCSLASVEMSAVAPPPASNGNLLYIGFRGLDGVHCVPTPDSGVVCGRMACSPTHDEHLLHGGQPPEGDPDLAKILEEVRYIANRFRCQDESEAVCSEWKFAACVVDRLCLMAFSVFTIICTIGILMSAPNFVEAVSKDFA

C1=CC(c2cccnc2)NCC1 (stereo not drawn) [R-isoanatabine, isoanatabine]
EC50 (human α4β2 nAChR [1]): 0.31 ± 0.09 µM
Imax (% ACh) (human α4β2 nAChR [1]): 102 ± 5.7 %ACh
Ki (rat brain α4β2 nAChRs): 0.136 ± 0.011 µM
Hill Slope (rat brain α4β2 nAChRs): 0.94 ± 0.05
EC50 (human α7 nAChR): 61.3 ± 12 µM
Imax (% ACh) (human α7 nAChR): 35.4 ± 5.3 % ACh
agonist character at α7 nAChRs (human α7 nAChR): weak partial agonist

C1=CC(c2cccnc2)NCC1 (stereo not drawn) [S-isoanatabine, isoanatabine]
EC50 (human α4β2 nAChR [1]): 1.01 ± 0.33 µM
Imax (% ACh) (human α4β2 nAChR [1]): 78.7 ± 1.9 %ACh
Ki (rat brain α4β2 nAChRs): 0.108 ± 0.014 µM
Hill Slope (rat brain α4β2 nAChRs): 1.08 ± 0.15
EC50 (human α7 nAChR): 52.3 ± 13 µM
Imax (% ACh) (human α7 nAChR): 81.9 ± 9.1 % ACh
agonist character at α7 nAChRs (human α7 nAChR): highly efficacious agonists

c1cncc([C@@H]2CCCCN2)c1 [S-anabasine, anabasine]
EC50 (human α4β2 nAChR [2]): 4 µM
Imax (human α4β2 nAChR [2]): 78%

C1=CC[C@@H](c2cccnc2)NC1 [S-anatabine, anatabine]
Ki (rat brain α7 receptors): 0.236 ± 0.02 µM

C1=CC[C@H](c2cccnc2)NC1 [R-anatabine, anatabine]
Ki (rat brain α7 receptors): 0.68 ± 0.12 µM
